Values quoted from earlier work as cited in patent US20170217976A1, “6-(AMINO ACID)-MORPHINAN DERIVATIVES IN COMBINATION WITH PERMEATION […] FOR USE AS AN ORALLY, […], TRA[…] NASALLY AD[…]” (C[…], priority 2014, published 2017).

Conditions: cited from earlier work

Question: With C[C@H]1CN(C[C@H](Cc2ccccc2)C(=O)NCC(=O)O)CC[C@@]1(C)c1cccc(O)c1 [alvimopan] as the compound, how does the oral bioavailability read?
Answer: The oral bioavailability was “approx. 6%”.
